In patent US7692038B2, “Crystalline forms” (Pfizer, Inc., priority 2006, dated 2010):

Assays:
[1] = Hygroscopicity by dynamic vapour sorption (DVS), water sorption and desorption; type: physicochemical; details: 30° C.
Method: Hygroscopicity was assessed for forms I and II using dynamic vapour sorption (DVS). The samples were characterised using a Surface Measurement Systems Ltd, dynamic vapour sorption equipment, model DVS-1. The analysis was conducted at 30° C. with a nitrogen gas flow of 200 cc/min. Water sorption and desorption were determined in the range 0 to 90% relative humidity (RH) using 15% RH intervals. Exposure was for a minimum of two hours at each humidity, or until the rate of weight change was less than 0.0005%/minute (averaged over 10 minutes). Sample weights were in the range 23-36 mg. The samples were weighed using a CAHN D-200, seven place digital recording balance, which is an integral part of the equipment. The results are tabulated below in Tables 6 and 7 and plotted in FIGS. 15 and 16.

[2] = Relative thermodynamic stability of polymorphs (slurry conversion); type: physicochemical; details: ambient temperature
Method: The crystalline forms of the invention may be prepared by the processes described below. The skilled person will understand that the preparation of particular polymorphic forms of a compound can sometimes be problematic, and that small changes in reaction conditions can sometimes result in an unexpected product. In particular, the presence of seeds in the atmosphere under which the experiment is conducted can have a decisive outcome on the result. The processes described below, however, are generally reliable. […] The form I polymorph is the more kinetically favoured product at ambient temperature and its formation is encouraged by rapid crystallisation techniques such as rapid cooling. Seeding with the desired product will obviously increase success in these preparations. Preparation of form I material is particularly encouraged by the use of a form I seed which contains a mixture of diastereomers due to epimerisation at the modified aspartate residue.
Pure form II may be prepared by slurrying a mixture of forms I and II in acetonitrile at room temperature until full conversion has taken place (typically a few days, e.g. 3 days). The product is then filtered off and dried (e.g. in a vacuum oven). The following procedures are illustrative.
A 40:60 mixture (by weight) of forms I and II was slurried in acetonitrile and left for three days. […]

C[C@H](NC(=O)C(=O)Nc1ccccc1C(C)(C)C)C(=O)N[C@@H](CC(=O)O)C(=O)COc1c(F)c(F)cc(F)c1F [Form I, (3S)-3-[N—(N′-(2-tert-butylphenyl)oxamyl)alaninyl]amino-5-(2′,3′,5′,6′-tetrafluorophenoxy)-4-oxopentanoic acid]
Water Sorption (% w/dry w) Desorption ([1]; 15% RH): 0.015 % w/dry w
Water Sorption (% w/dry w) Sorption ([1]; 15% RH): 0.018 % w/dry w
Water Sorption (% w/dry w) Desorption ([1]; 30% RH): 0.025 % w/dry w
Water Sorption (% w/dry w) Sorption ([1]; 30% RH): 0.028 % w/dry w
Water Sorption (% w/dry w) Desorption ([1]; 45% RH): 0.037 % w/dry w
Water Sorption (% w/dry w) Sorption ([1]; 45% RH): 0.049 % w/dry w
Water Sorption (% w/dry w) Desorption ([1]; 60% RH): 0.055 % w/dry w
Water Sorption (% w/dry w) Sorption ([1]; 60% RH): 0.072 % w/dry w
Water Sorption (% w/dry w) Desorption ([1]; 75% RH): 0.105 % w/dry w
Water Sorption (% w/dry w) Sorption ([1]; 75% RH): 0.110 % w/dry w
Water Sorption (% w/dry w) Desorption ([1]; 90% RH): 0.208 % w/dry w
Water Sorption (% w/dry w) Sorption ([1]; 90% RH): 0.208 % w/dry w

C[C@H](NC(=O)C(=O)Nc1ccccc1C(C)(C)C)C(=O)N[C@@H](CC(=O)O)C(=O)COc1c(F)c(F)cc(F)c1F [Form II, (3S)-3-[N—(N′-(2-tert-butylphenyl)oxamyl)alaninyl]amino-5-(2′,3′,5′,6′-tetrafluorophenoxy)-4-oxopentanoic acid]
Water Sorption (% w/dry w) Desorption ([1]; 15% RH): 0.009 % w/dry w
Water Sorption (% w/dry w) Sorption ([1]; 15% RH): 0.007 % w/dry w
Water Sorption (% w/dry w) Desorption ([1]; 30% RH): 0.015 % w/dry w
Water Sorption (% w/dry w) Sorption ([1]; 30% RH): 0.014 % w/dry w
Water Sorption (% w/dry w) Desorption ([1]; 45% RH): 0.021 % w/dry w
Water Sorption (% w/dry w) Sorption ([1]; 45% RH): 0.020 % w/dry w
Water Sorption (% w/dry w) Desorption ([1]; 60% RH): 0.031 % w/dry w
Water Sorption (% w/dry w) Sorption ([1]; 60% RH): 0.029 % w/dry w
Water Sorption (% w/dry w) Desorption ([1]; 75% RH): 0.044 % w/dry w
Water Sorption (% w/dry w) Sorption ([1]; 75% RH): 0.042 % w/dry w
Water Sorption (% w/dry w) Desorption ([1]; 90% RH): 0.057 % w/dry w
Water Sorption (% w/dry w) Sorption ([1]; 90% RH): 0.057 % w/dry w
Thermodynamic stability of the polymorph [2]: most thermodynamically stable
